Test results as given in the SangsterLogP compilation.

Row | SMILES | logP
1 | CCCCCCCCCCCCCCCCCCCC(=O)O | 9.29
2 | CCCCCCCCCCCCCCCC(=O)O | 7.17
3 | CC/C=C\C/C=C\C/C=C\CCCCCCCC(=O)O | 6.46
4 | CCCCC/C=C\C/C=C\C/C=C\C/C=C\CCCC(=O)O | 6.98
5 | CCCCCCCCCCCCCC(=O)O | 6.11
6 | CCCCC/C=C\C/C=C\CCCCCCCC(=O)O | 7.05
7 | CCCCCCC/C=C\CCCCCCC(=O)O | 6.58
8 | CCCCCCCC/C=C\CCCCCCCC(=O)O | 7.64
9 | CC(C)OC(=O)c1ccccc1 | 3.09
10 | CCCCCCCCCCCCCCCCCC(=O)O | 8.23
11 | CCCCCC(=O)O | 1.87
